A word on the inhibition: it is the percentage by which the read-out fell short of the control.

Data set [1] concerns the target T1, dopamine receptors (limbic D2) (Rattus norvegicus, UniProt P61169).
T1 construct: from tissue
Briefly: limbic (accumbens) D2 binding, 3H-spiroperidol. The note with it: limbic brain tissue. The protocol: (§1) Following the procedures of Fields et al., Brain Res., 136, 578 (1977) and Yamamura et al., Neurotransmitter Receptor Binding, Raven Press, N.Y. (1978), homogenized limbic brain tissue is incubated with ^3 H-spiroperidol and various concentrations of test compound, filtered and washed and shaken with Hydrofluor scintillation cocktail (National Diagnostics) and counted in a Packard 460 CD scintillation counter. Binding in the presence of test compound is expressed as percent of specific binding [total binding less binding in the presence of 1 μM (+) butaclamol]. This limbic D2 binding procedure assesses a compounds potential binding at dopamine receptors as a predictor of antipsychotic activity.

Data set [2] deals with trained male CD rats (Charles River). Put plainly: conditioned avoidance, shelf-jump response test in trained rats. It is filed as in vivo, rat. An excerpt:
The antipsychotic/anxiolytic properties of the pyridine N-oxides of this invention were established by standard pharmacologically accepted procedures involving conditioned avoidance studies in which trained male CD rats (Charles River), 400-500 gm body weight, are exposed to a fifteen second warning tone (conditional stimulus) continued for an additional fifteen seconds accompanied by electric shock. The rates can avoid the electric shock by jumping to an exposed shelft (shelf-jump response). A response during the initial warning tone is considered to be an avoidance response while a response during shock delivery is considered an escape response. The avoidance response is determined and expressed as a percentage of total trials from an appropriate number of trials. The shelf-jump response test procedure follows that of Herman et al., Comm. in Psychopharm., 3, 165 (1979).

The target of data set [3] is T2, serotonin-2 receptors (5HT2) (Rattus norvegicus, UniProt P14842).
T2 construct: employing brain cortical tissue; from tissue; host or cells: brain cortical tissue
T2 sequence (P14842 whole entry): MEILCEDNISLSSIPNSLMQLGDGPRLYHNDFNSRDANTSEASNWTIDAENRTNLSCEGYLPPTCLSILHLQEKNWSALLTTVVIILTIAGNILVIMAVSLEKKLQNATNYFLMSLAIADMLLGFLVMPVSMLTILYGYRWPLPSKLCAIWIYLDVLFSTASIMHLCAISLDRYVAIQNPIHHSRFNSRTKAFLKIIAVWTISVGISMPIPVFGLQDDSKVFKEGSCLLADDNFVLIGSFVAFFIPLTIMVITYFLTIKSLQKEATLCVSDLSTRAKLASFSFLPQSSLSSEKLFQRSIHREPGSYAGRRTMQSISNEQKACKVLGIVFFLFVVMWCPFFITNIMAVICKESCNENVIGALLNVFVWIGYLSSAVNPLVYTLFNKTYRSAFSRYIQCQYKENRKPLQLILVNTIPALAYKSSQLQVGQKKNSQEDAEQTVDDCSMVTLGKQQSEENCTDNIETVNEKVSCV
Briefly: serotonin-2 (5HT2) receptor binding in brain cortical tissue. The following applies: for inhibition at 1 µM: read-out: % Inhibition of serotonin 5HT2 binding, at 1 μM.

A short description of data set [4]: overall appraisal from conditioned avoidance, serotonin binding inhibition and dopamine receptor binding inhibition procedures. The following applies: tertiary nitrogen oxides of the parent compared. The protocol:
as §1

Data set [5] in a line: detection of metabolite in monkey urine and plasma after administration of the parent drug. The data set is classed as in vivo. The following applies: intragastric 4 mg/kg or iv 1 mg/kg of parent drug. An excerpt:
(§2) By comparative analysis, the compounds of this invention were discovered to be one major form of several metabolites of the compounds disclosed in U.S. Pat. Nos. 4,636,563 and 4,672,117. This may be illustrated by consideration of the metabolic conversion of the compound of claim 13 of U.S. Pat. No. 4,636,563. Oral administration of the drug 8-fluoro-2,3,4,5-tetrahydro-2-[3-(3-pyridinyl)propyl]-1H-pyrido[4,3-b]indole to rats at a dose of 100 milligrams per kg followed by collectiion of urine and isolation of metabolites by column chromatography and selective solubilization in organic solvents yielded several metabolites. […] This metabolic pathway is consistent with the other anti-psychotic-anxilytic agents disclosed and claimed in U.S. Pat. Nos. 4,636,563 and 4,672,117.

Data set [6] can be described thus: isolation of metabolites from rat urine after oral administration of the parent drug. It is filed as in vivo. The note with it: oral administration of parent drug at 100 mg/kg.
Source text: as §2

T1 sequence (P61169 whole entry): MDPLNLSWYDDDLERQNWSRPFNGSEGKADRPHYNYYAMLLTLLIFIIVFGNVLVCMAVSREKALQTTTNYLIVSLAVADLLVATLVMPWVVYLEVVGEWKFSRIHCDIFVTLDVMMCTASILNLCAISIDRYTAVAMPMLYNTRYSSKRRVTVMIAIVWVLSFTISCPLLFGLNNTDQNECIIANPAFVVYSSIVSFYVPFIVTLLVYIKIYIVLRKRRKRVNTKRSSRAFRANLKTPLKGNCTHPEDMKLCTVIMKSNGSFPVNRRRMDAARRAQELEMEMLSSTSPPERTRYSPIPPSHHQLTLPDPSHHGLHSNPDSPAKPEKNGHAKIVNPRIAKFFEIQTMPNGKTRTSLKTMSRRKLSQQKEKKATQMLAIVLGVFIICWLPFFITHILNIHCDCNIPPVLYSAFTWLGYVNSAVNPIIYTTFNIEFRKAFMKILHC

`[O-][N+]1(CCCc2cccnc2)CCc2[nH]c3ccc(F)cc3c2C1` (stereo not drawn) [C, 8-Fluoro-2,3,4,5-tetrahydro-2-[3-(3-pyridinyl)propyl]-1H-piperidino[4,3-b]indole 2-oxide]: the inhibition at 1 µM was 0% in data set [1] and 18% in data set [3]. The Inhibition of shelf-jump entry in data set [2] (result in words, dose not given) is reported as “not significant”.

On to `Fc1ccc2[nH]c3c(c2c1)CN(CCCc1cccnc1)CC3` [A, 8-fluoro-2,3,4,5-tetrahydro-2-[3-(3-pyridinyl)propyl]-1H-piperidino(4,3-b]indole, reference compound], for which the inhibition at 1 µM was 93% in data set [1] and 78% in data set [3]. For the same compound, in data set [2] (20 mg/kg), the Inhibition of shelf-jump came to 73%.

For `NCCc1ccc(O)c(O)c1` [dopamine, reference compound], the “activity at serotonin-2 receptor” value in data set [3] was “inactive”.

Take `[O-][n+]1cccc(CCCN2CCc3[nH]c4ccc(F)cc4c3C2)c1` [D, 8-Fluoro-2,3,4,5-tetrahydro-2-[3-(3-pyridinyl)propyl]-1H-piperidino[4,3-b]indole N-oxide]: the “antipsychotic/anxiolytic activity” value in data set [4] is reported as “meaningful antipsychotic/anxiolytic activity”. The inhibition at 1 µM came out at 66% in data set [1] and 68% in data set [3]. Moreover, the “detection as metabolite in urine and plasma” value in data set [5] was “detected in monkey urine and plasma”. In data set [2] (40 mg/kg), the Inhibition of shelf-jump was found to be 16%. The “metabolite of the parent drug in urine” value in data set [6] is “one of the major metabolites”.

For the compound `[O-][n+]1cccc(CCC[N+]2([O-])CCc3[nH]c4ccc(F)cc4c3C2)c1` (stereo not drawn) [B, 8-Fluoro-2,3,4,5-tetrahydro-2-[3-(3-pyridinyl)propyl]-1H-piperidino[4,3-b]indole N,2-dioxide], the values for the inhibition at 1 µM in data set [1] and in data set [3] were 4% and 18%, respectively.
